Reference: US5001160A (priority 1989, dated 1991)
Structures can show the parent of a compound that is named as a salt.

These molecules were tested on bladder contraction (PvesP) (assay: not given). Conditions: guinea pig, in vivo, iv.

Compound	T1/2 for recovery toward control level of the PvesP contraction strength parameter
CN1CCN(CC(=O)C(O)(c2ccccc2)C2CCCCC2)CC1 (centres unmarked) [1-Cyclohexyl-1-hydroxy-3-(4-methyl-1-piperazinyl)-1-phenyl-2-propanone]	3.6 ± 0.3 h

What follows are molecules tested against postsynaptic muscarinic cholinergic receptors (bladder detrusor muscle) (Cavia porcellus, UniProt H0W1Z3) (assay: cell-based). Conditions: not given.
Chain of postsynaptic muscarinic cholinergic receptors (bladder detrusor muscle) (H0W1Z3 1-590): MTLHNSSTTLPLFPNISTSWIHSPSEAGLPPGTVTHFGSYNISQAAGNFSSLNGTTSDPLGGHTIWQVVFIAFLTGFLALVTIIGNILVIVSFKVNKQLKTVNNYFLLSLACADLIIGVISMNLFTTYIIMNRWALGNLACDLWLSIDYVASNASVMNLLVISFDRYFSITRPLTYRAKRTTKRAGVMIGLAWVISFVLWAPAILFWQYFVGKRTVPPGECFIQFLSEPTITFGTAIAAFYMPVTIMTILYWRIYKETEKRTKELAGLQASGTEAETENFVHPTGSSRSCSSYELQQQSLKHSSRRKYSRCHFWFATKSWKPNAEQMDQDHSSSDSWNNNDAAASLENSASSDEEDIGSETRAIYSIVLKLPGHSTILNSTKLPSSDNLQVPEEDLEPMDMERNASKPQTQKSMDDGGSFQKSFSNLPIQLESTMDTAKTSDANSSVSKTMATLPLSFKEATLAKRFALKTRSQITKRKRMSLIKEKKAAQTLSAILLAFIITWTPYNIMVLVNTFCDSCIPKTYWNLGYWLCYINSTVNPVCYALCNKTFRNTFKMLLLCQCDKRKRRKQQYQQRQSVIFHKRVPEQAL
Design: species or system guinea pig

Compound	Kb
O=C(CN1CCNCC1)C(O)(c1ccccc1)C1CCC1 (centres unmarked) [1-Cyclobutyl-1-hydroxy-1-phenyl-3-piperazinyl-2-propanone Dihydrochloride]	86 nM
C=CCN1CCN(CC(=O)C(O)(c2ccccc2)C2CCC2)CC1 (centres unmarked) [1-Cyclobutyl-1-hydroxy-3-(4-allyl-1-piperazinyl)-1-phenyl-2-propanone Dihydrochloride]	65 nM
O=C(CN1CCN(C(c2ccccc2)c2ccccc2)CC1)C(O)(c1ccccc1)C1CCC1 (centres unmarked) [1-Cyclobutyl-1-hydroxy-3-(4-benzyhydryl-1-piperazinyl)-1-phenyl-2-propanoneDihydrochloride]	No Effect at 1 μM
O=C(CN1CCN(C2CCC2)CC1)C(O)(c1ccccc1)C1CCC1 (centres unmarked) [1-Cyclobutyl-1-hydroxy-3-(4-cyclobutyl-1-piperazinyl)-1-phenyl-2-propanone Dihydrochloride]	230 nM
CCOC(=O)N1CCN(CC(=O)C(O)(c2ccccc2)C2CCC2)CC1.Cl (centres unmarked) [1-Cyclobutyl-1-hydroxy-3-(4-ethoxycarbonyl-1-piperazinyl)-1-phenyl-2-propanone Hydrochloride]	No Effect at 1 μM
CN1CCN(CC(=O)C(O)(c2ccccc2)C2CCC2)CC1 (centres unmarked) [1-Cyclobutyl-1-hydroxy-3-(4-methyl-1-piperazinyl)-1-phenyl-2-propanone Dihydrochloride]	24.9 nM
Cl.Cl.O=C(CN1CCN(c2ccccc2)CC1)C(O)(c1ccccc1)C1CCC1 (centres unmarked) [1-Cyclobutyl-1-hydroxy-3-(4-phenyl-1-piperazinyl)-1-phenyl-2-propanone Dihydrochloride]	No Effect at 1 μM
CCCN1CCN(CC(=O)C(O)(c2ccccc2)C2CCC2)CC1 (centres unmarked) [1-Cyclobutyl-1-hydroxy-3-(4-propyl-1-piperazinyl)-1-phenyl-2-propanone Dihydrochloride]	673 nM
O=C(CN1CCN(CC(=O)C(O)(c2ccccc2)C2CCC2)CC1)N1CCCC1 (centres unmarked) [1-Cyclobutyl-1-hydroxy-3-(4-pyrrolidino-carbonylmethyl-1-piperazinyl)-1-phenyl-2-propanone Dihydrochloride]	210 nM
CCOc1ccccc1N1CCN(CC(=O)C(O)(c2ccccc2)C2CCC2)CC1.Cl.Cl (centres unmarked) [1-Cyclobutyl-1-hydroxy-3-[4-(2-ethoxyphenyl)-1-piperazinyl]-1-phenyl-2-propanone Dihydrochloride]	No Effect at 1 μM
O=C(CN1CCN(CCO)CC1)C(O)(c1ccccc1)C1CCC1 (centres unmarked) [1-Cyclobutyl-1-hydroxy-3-[4-(2-hydroxyethyl)-1-piperazinyl]-1-phenyl-2-propanone Dihydrochloride]	201 nM
COc1ccccc1N1CCN(CC(=O)C(O)(c2ccccc2)C2CCC2)CC1.Cl.Cl (centres unmarked) [1-Cyclobutyl-1-hydroxy-3-[4-(2-methoxyphenyl)-1-piperazinyl]-1-phenyl-2-propanone Dihydrochloride]	No Effect at 1 μM
C=C(C)CN1CCN(CC(=O)C(O)(c2ccccc2)C2CCC2)CC1 (centres unmarked) [1-Cyclobutyl-1-hydroxy-3-[4-(2-methyl-2-propenyl)-1-piperazinyl]1-phenyl-2-propanone Dihydrochloride]	100 nM
C=CCCN1CCN(CC(=O)C(O)(c2ccccc2)C2CCC2)CC1 (centres unmarked) [1-Cyclobutyl-1-hydroxy-3-[4-(3-butenyl)-1-piperazinyl]-1-phenyl-2-propanoneDihydrochloride]	35 nM
CC(C)=CCN1CCN(CC(=O)C(O)(c2ccccc2)C2CCC2)CC1 (centres unmarked) [1-Cyclobutyl-1-hydroxy-3-[4-(3-methyl-2-butenyl)-1-piperazinyl]-1-phenyl-2-propanone Dihydrochloride]	19 nM
O=C(CN1CCN(Cc2ccc(Cl)cc2)CC1)C(O)(c1ccccc1)C1CCC1 (centres unmarked) [1-Cyclobutyl-1-hydroxy-3-[4-(4-chlorobenzyl)-]1-piperazinyl]-1-phenyl-2-propanone Dihydrochloride]	16 nM
Cc1ccc(CN2CCN(CC(=O)C(O)(c3ccccc3)C3CCC3)CC2)cc1 (centres unmarked) [1-Cyclobutyl-1-hydroxy-3-[4-(4-methylbenzyl)-]1-piperazinyl]-1-phenyl-2-propanone Dihydrochloride]	9.1 nM
O=C(CN1CCN(Cc2ccc([N+](=O)[O-])cc2)CC1)C(O)(c1ccccc1)C1CCC1 (centres unmarked) [1-Cyclobutyl-1-hydroxy-3-[4-(4-nitrobenzyl)-1-piperazinyl]-1-phenyl-2-propanone Dihydrochloride]	83 nM
Cl.Cl.O=C(CN1CCN(c2ccc([N+](=O)[O-])cc2)CC1)C(O)(c1ccccc1)C1CCC1 (centres unmarked) [1-Cyclobutyl-1-hydroxy-3-[4-(4-nitrophenyl)-1-piperazinyl]-1-phenyl-2-propanone Dihydrochloride]	No Effect at 1 μM
C=CCN1CCN(CC(=O)C(O)(c2ccccc2)C2CCCCC2)CC1 (centres unmarked) [1-Cyclohexyl-1-hydroxy-3-(4-allyl-1-piperazinyl)-1-phenyl-2-propanone Dihydrochloride]	26 nM
CN1CCN(CC(=O)C(O)(c2ccccc2)C2CCCCC2)CC1 (centres unmarked) [1-Cyclohexyl-1-hydroxy-3-(4-methyl-1-piperazinyl)-1-phenyl-2-propanone]	25.9 ± 5.3 nM
O=C(CN1CCN(CCO)CC1)C(O)(c1ccccc1)C1CCCCC1 (centres unmarked) [1-Cyclohexyl-1-hydroxy-3-[4-(2-hydroxyethyl)-1-piperazinyl]-1-phenyl-2-propanone Dihydrochloride]	96 nM
